Laboratory results taken from patent US6951848B2, “Functionalized heterocycles as modulators of chemokine receptor function and methods of use therefor” (Millennium Pharmaceuticals, Inc.,, priority 2001, dated 2005).

Key:
[1] = biological target: T1, CCR-5 (Homo sapiens, UniProt P51681); experiment: 125I-gp120/sCD4/CCR-5 receptor binding assay; settings: membranes from CCR-5/L 1.2 cells, 3 nM sCD4, 0.1 nM 125I-gp120 (HIV-1 JR-FL); read-out: IC50 for inhibition of binding of sCD-4/GP-120 to CCR-5
T1 construct: expressed in transfected cells; host or cells: L1.2 cells (CCR-5/L1.2 transfectants), membranes
T1 sequence (P51681 whole entry): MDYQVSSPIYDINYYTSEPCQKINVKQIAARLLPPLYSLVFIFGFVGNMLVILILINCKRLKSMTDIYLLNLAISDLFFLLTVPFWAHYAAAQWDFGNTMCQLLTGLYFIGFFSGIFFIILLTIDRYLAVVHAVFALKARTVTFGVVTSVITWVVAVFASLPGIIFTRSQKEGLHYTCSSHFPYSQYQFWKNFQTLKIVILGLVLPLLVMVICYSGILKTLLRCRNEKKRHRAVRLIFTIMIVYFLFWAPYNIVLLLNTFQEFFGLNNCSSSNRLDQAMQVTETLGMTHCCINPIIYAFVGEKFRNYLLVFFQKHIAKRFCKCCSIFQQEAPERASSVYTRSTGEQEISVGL
Method: CCR-5 Receptor Binding Assay The compounds of the present invention were evaluated using the following CCR-5 receptor binding assay. The ^125I-gp120/sCD4/CCR-5 binding assay was carried out similarly as described in Wu et al., Nature, 1996;384:179-183. Briefly, the envelope gp120 protein derived from HIV-1 JR-FL (Trkola et al., Nature, 1996;384:184-186), an M-tropic strain, was iodinated using solid phase lactoperoxidase to a specific activity of 20 μCi/μg. For each binding reaction (in a final volume of 100 μL binding buffer [50 mM HEPES, pH 7.5, 1 mM CaCl2, 5 mM MgCl2, and 0.5% BSA]), 25 μL (2.5 μg) of membranes prepared from CCR-5/L 1.2 cells were mixed with 25 μL (3 nM) sCD4, followed by 25 μL (0.1 nM) radio-labeled gp120 in the presence or absence of 25 μL compound dissolved in DMSO (final concentration of DMSO 0.5%). The reactions were incubated at room temperature for 45 to 60 minutes and stopped by transferring the mixture to GFB filter plates, which were then washed 3 to 4 times with binding buffer containing 0.5 M NaCl. The plates were dried and MicroScint scintillation fluid was added before counting. […] The compounds of Examples 56 and 66 had IC50s of about […]. […] Preferred compounds can inhibit the binding of sCD-4/GP-120 to CCR-5 with IC50s of about 10 μM to about 100 μM or about 1 nM to about 10 μM

A melting point of 130 to 134 °C and an IC50 [1] of 1930 ± 320 nM were found for `CCN(CC)CCc1ccc2[nH]c(C)c(C(=O)OCc3ccccc3)c2c1.Cl` [Example 72, 5-(2-Diethylamino-ethyl)-2-methyl-1H-indole-3-carboxylic acid benzyl ester hydrochloride] in this work.
